According to patent publication US20150224085A1, “METHOD OF ADMINISTERING A 5,5-FUSED HETEROARYLENE HEPATITIS C VIRUS INHIBITOR FOR TREATING OF PREVENTING HEPATITIS C VIRUS INFECTION” (priority 2012, published 2015):
Several values for one entry are separate records, joined by “and”; a condition that tells them apart may be missing. Identical values can stand only once.

Experiments:
HCV Genotype 3 [1] = test: Phase I/IIa Group D: HCV RNA reduction, 3-day dosing, Genotype 3; type: in vivo, hepatitis C virus; settings: n = 4
Method: (§1) The phase I/IIa study was designed to evaluate safety and tolerability, pharmacokinetics (PK), food effect, and antiviral activity with regard to the Compound. The key safety parameters that were evaluated in the trial include adverse events (AEs), physical examination, vital signs, 12-lead electrocardiogram (ECG), and standard safety laboratory tests. The key antiviral activity parameters that were evaluated in the trial include changes in plasma HCV RNA and emergence of resistance mutations. The key pharmacokinetic parameters that were evaluated in the trial include plasma and urine concentrations of the Compound.
(§2) In the phase I/IIa study, plasma HCV RNA was quantitated using a validated commercial assay (COBAS® TAQMAN®) with a lower limit of quantitation of 25 IU/mL. HCV RNA genotyping was performed at Baseline using the Versant HCV Genotype Assay (LiPA) 2.0.
(§3) In Group D, the Compound was evaluated in an randomized, double-blind, placebo-controlled, parallel dosing study in 30 treatment-naive, genotypes 2, 3, and 4 HCV-infected subjects.
(§4) For all cohorts, dosing was under fasted in this study.

HCV Genotype 2 = test: Phase I/IIa Group D: HCV RNA reduction, 3-day dosing, Genotype 2; type: in vivo, hepatitis C virus; settings: for Mean (Range) Maximal HCV RNA Reduction from Baseline: n = 4
Method: as §1, §2, §3, §4

clinical = settings: human, in vivo
Method: as §1, §2
(§5) In Group B, the Compound was evaluated in an open-label, single day study in 18 subjects with chronic HCV Genotype 1, 2, or 3 infection. […] For all cohorts, dosing was under fasted in this study.

[2] = 28-day toxicity study in mice
Method: Safety margins were calculated based upon proposed human doses in the first-in-human trial and human equivalent dose (HED) calculations derived from the two 28-day toxicology studies in mice and monkeys. This approach is consistent with the United States Food and Drug Administration Guidance for Industry entitled “Estimating the Maximum Safe Starting Dose in Initial Clinical Trials for Therapeutics in Adult Healthy Volunteers,” July 2005.

[3] = Phase I/IIa Group A: pharmacokinetics in healthy subjects; type: in vivo, human; settings: for Cmax / half-life / AUC(0-inf) / Tmax: human, plasma, oral
Method: The phase I/IIa study was designed to evaluate safety and tolerability, pharmacokinetics (PK), food effect, and antiviral activity with regard to the Compound. The key safety parameters that were evaluated in the trial include adverse events (AEs), physical examination, vital signs, 12-lead electrocardiogram (ECG), and standard safety laboratory tests. The key antiviral activity parameters that were evaluated in the trial include changes in plasma HCV RNA and emergence of resistance mutations. The key pharmacokinetic parameters that were evaluated in the trial include plasma and urine concentrations of the Compound. […]
The Compound was first evaluated in a randomized, double-blind, placebo-controlled, sequential dose escalation study in 48 healthy subjects. For each cohort, there were 6 subjects to receive the Compound and 2 subjects to receive placebo. Except cohort 5a, the Compound was administered under fasted conditions.
For the food effect study (cohort 5a), subjects received a single dose of 50 mg of the Compound or placebo on Days 1 and 8, with a 7 day washout between dosing periods. In the food effect study, the subjects were randomized among two groups, differing by fasted/fed dosing sequences as shown in Table 3.

HCV Genotype 3 [4] = test: Phase I/IIa Group B: plasma HCV RNA reduction after single dose, Genotype 3; type: in vivo, hepatitis C virus; settings: 1 subject
Method: as §1, §2, §5

[5] = healthy subjects, 100 mg QD x 7 days, fasted, PK Day 1, mean ± SD
[6] = 5 mg, healthy subjects, 5 mg single dose, fasted, PK Day 1, mean ± SD
[7] = 10 mg, healthy subjects, 10 mg single dose, fasted, PK Day 1, mean ± SD
[8] = 25 mg, healthy subjects, 25 mg single dose, fasted, PK Day 1, mean ± SD
[9] = 50 mg, healthy subjects, 50 mg single dose, fasted, PK Day 1, mean ± SD
[10] = 50 mg, healthy subjects, 50 mg single dose, fed, PK Day 1, mean ± SD
[11] = 100 mg, healthy subjects, 100 mg QD x 7 days, fasted, PK Day 7, mean ± SD
[12] = 100 mg, healthy subjects, 100 mg single dose, fasted, PK Day 1, mean ± SD

SMILES: COC(=O)N[C@H](C(=O)N1CCC[C@H]1c1nc2cc(-c3csc4c(-c5ccc(-c6cnc([C@@H]7CCCN7C(=O)[C@H](NC(=O)OC)c7ccccc7)[nH]6)cc5)csc34)ccc2[nH]1)C(C)C [the Compound, [(S)-1-((S)-2-{6-[6-(4-{(S)-2-[1-((R)-2-methoxycarbonylamino-2-phenyl-acetyl)-pyrrolidin-2-yl]-3H-imidazol-4-yl}-phenyl)-thieno[3,2-b]thiophen-3-yl]-1H-benzoimidazol-2-yl}-pyrrolidine-1-carbonyl)-2-methyl-propyl]-carbamic acid methyl ester]
- Mean (Range) Maximal HCV RNA Reduction from Baseline (HCV Genotype 3 [1]; 50 mg BID x 3 days): 3.3 (2.5-4.6) log10 IU/mL
- Mean (Range) Maximal HCV RNA Reduction from Baseline (HCV Genotype 3 [1]; 100 mg QD x 3 days): 3.4 (3.1-3.8) log10 IU/mL
- Mean (Range) Maximal HCV RNA Reduction from Baseline (HCV Genotype 2; 50 mg BID x 3 days): 2.0 (0.5-4.0) log10 IU/mL
- Mean (Range) Maximal HCV RNA Reduction from Baseline (HCV Genotype 2; 100 mg QD x 3 days): 2.0 (0.3-4.1) log10 IU/mL
- Mean Max Viral Load Response (HCV Genotype 2; subjects with L31 at BL, L31M at Day 4, 2 subjects): −2.83 log10 IU/mL
- Mean Max Viral Load Response (HCV Genotype 2; subjects with L31 at BL, low VL at Day 4 (<1,000 IU/mL), 2 subjects): −4.06 log10 IU/mL
- Mean Max Viral Load Response (HCV Genotype 2; subjects with M31 at BL, 3 subjects): −0.45 log10 IU/mL
- mean maximal viral load reduction (HCV Genotype 2; total daily dose of 100 mg for 3 days): 2.0 log10 IU/mL
- exposure versus dose (clinical): Dose proportional exposure
- AUC(0-inf) (clinical; 1 mg): 8 ± 5.8 ng·h/mL
- Cmax (clinical; 1 mg): 0.5 ± 0.4 ng/mL
- Tmax (clinical; 1 mg): 4 h
- half-life (clinical; 1 mg): 13 ± 6 h
- AUC(0-inf) (clinical; 5 mg): 39 ± 14.5 ng·h/mL
- Cmax (clinical; 5 mg): 2.2 ± 1.1 ng/mL
- Tmax (clinical; 5 mg): 4 h
- half-life (clinical; 5 mg): 13 ± 0.5 h
- AUC(0-inf) (clinical; 10 mg): 188 ± 3.7 ng·h/mL
- Cmax (clinical; 10 mg): 9 ± 1.2 ng/mL
- Tmax (clinical; 10 mg): 3 h
- half-life (clinical; 10 mg): 24 ± 5.9 h
- AUC(0-inf) (clinical; 25 mg): 216 ± 80.6 ng·h/mL
- Cmax (clinical; 25 mg): 13.8 ± 3.8 ng/mL
- Tmax (clinical; 25 mg): 3.5 h
- half-life (clinical; 25 mg): 18 ± 3.8 h
- AUC(0-inf) (clinical; 50 mg): 576 ± 299 ng·h/mL
- Cmax (clinical; 50 mg): 35.2 ± 16.5 ng/mL
- Tmax (clinical; 50 mg): 4 h
- half-life (clinical; 50 mg): 22 ± 1.8 h
- AUC(0-inf) (clinical; 100 mg): 1340 ± 282 ng·h/mL
- Cmax (clinical; 100 mg): 95 ± 20.4 ng/mL
- Tmax (clinical; 100 mg): 4 h
- half-life (clinical; 100 mg): 19 ± 2 h
- no observable effect level (NOEL) ([2]; 28-day mouse study): 150 mg/kg/day
- toxicological target ([2]; 28 days, doses up to 250 mg/kg/day): did not define any toxicological target
- NOAEL at 28 days ([2]; both, mouse, in vivo): 250 mg/kg/day
- liver histology ([2]; males and females, 250 mg/kg/day): minimal to mild diffuse hypertrophy of centrilobular hepatocytes
- increase in plasma levels with dose ([2]; mouse, in vivo, 150 mg/kg/day): little or no increase
- Mean ALT values at Day 29 ([2]; mouse, in vivo, 250 mg/kg/day): 88.4 U/L
- Margin of Safety, Mouse ([2]; proposed human dose 1 mg/subject/day (0.02 mg/kg/day)): 610 fold
- Margin of Safety, Mouse ([2]; proposed human dose 5 mg/subject/day (0.08 mg/kg/day)): 153 fold
- Margin of Safety, Mouse ([2]; proposed human dose 10 mg/subject/day (0.17 mg/kg/day)): 72 fold
- Margin of Safety, Mouse ([2]; proposed human dose 25 mg/subject/day (0.42 mg/kg/day)): 29 fold
- Margin of Safety, Mouse ([2]; proposed human dose 50 mg/subject/day (0.83 mg/kg/day)): 15 fold
- reduction of exposure by food ([3]; 50 mg, after high-fat (about 55 g), high-calorie (about 950 kcal) meal): approximately two-thirds
- increase of AUC0-inf upon reaching steady state ([3]; QD dosing x 7 days): approximately 50%
- increase of Ctrough upon reaching steady state ([3]; QD dosing x 7 days): about 70%
- Ctrough ([3]; healthy subjects, 5 mg single dose, fasted, PK Day 1, mean ± SD): 1.6 ± 0.5 ng/mL
- Ctrough ([3]; healthy subjects, 10 mg single dose, fasted, PK Day 1, mean ± SD): 3.7 ± 1.8 ng/mL
- Ctrough ([3]; healthy subjects, 25 mg single dose, fasted, PK Day 1, mean ± SD): 8.1 ± 2.9 ng/mL
- Ctrough ([3]; healthy subjects, 50 mg single dose, fasted, PK Day 1, mean ± SD): 13.4 ± 4.6 ng/mL
- Ctrough ([3]; healthy subjects, 50 mg single dose, fed, PK Day 1, mean ± SD): 5.6 ± 1.3 ng/mL
- AUC0-24 (column AUC0-inf, footnote 1) [3, 5]: 980 ± 312.4^1 ng · h/mL
- Ctrough [3, 5]: 20.4 ± 9.0 ng/mL
- Ctrough ([3]; healthy subjects, 100 mg QD x 7 days, fasted, PK Day 7, mean ± SD): 34 ng/mL and 34.0 ± 14.4 ng/mL
- Ctrough ([3]; healthy subjects, 100 mg single dose, fasted, PK Day 1, mean ± SD): 17.1 ± 6.2 ng/mL
- exposure versus dose ([3]; healthy volunteers, dose range 5 to 100 mg): Dose proportional exposure
- Cmax [3, 6]: 5.1 ± 1.1 ng/mL
- half-life [3, 6]: 21 ± 4.5 h
- AUC(0-inf) ([3]; 5 mg, healthy subjects, 5 mg single dose, fasted, PK Day 1, mean ± SD, read-out: AUC0-inf): 110 ± 35.4 ng·h/mL
- Tmax ([3]; 5 mg, healthy subjects, 5 mg single dose, fasted, PK Day 1, median (min-max)): 4 h
- Cmax [3, 7]: 11.5 ± 4.3 ng/mL
- half-life [3, 7]: 24 ± 4.7 h
- AUC(0-inf) ([3]; 10 mg, healthy subjects, 10 mg single dose, fasted, PK Day 1, mean ± SD, read-out: AUC0-inf): 259 ± 123 ng·h/mL
- Tmax ([3]; 10 mg, healthy subjects, 10 mg single dose, fasted, PK Day 1, median (min-max)): 5 h
- Cmax [3, 8]: 26.5 ± 11.1 ng/mL
- half-life [3, 8]: 24 ± 3.2 h
- AUC(0-inf) ([3]; 25 mg, healthy subjects, 25 mg single dose, fasted, PK Day 1, mean ± SD, read-out: AUC0-inf): 570 ± 200 ng·h/mL
- Tmax ([3]; 25 mg, healthy subjects, 25 mg single dose, fasted, PK Day 1, median (min-max)): 4 h
- Cmax [3, 9]: 50.9 ± 18.1 ng/mL
- half-life [3, 9]: 22 ± 1.7 h
- AUC(0-inf) ([3]; 50 mg, healthy subjects, 50 mg single dose, fasted, PK Day 1, mean ± SD, read-out: AUC0-inf): 952 ± 336 ng·h/mL
- Tmax ([3]; 50 mg, healthy subjects, 50 mg single dose, fasted, PK Day 1, median (min-max)): 4 h
- Cmax [3, 10]: 13.2 ± 3.3 ng/mL
- half-life [3, 10]: 23 ± 3 h
- AUC(0-inf) ([3]; 50 mg, healthy subjects, 50 mg single dose, fed, PK Day 1, mean ± SD, read-out: AUC0-inf): 335 ± 53.9 ng·h/mL
- Tmax ([3]; 50 mg, healthy subjects, 50 mg single dose, fed, PK Day 1, median (min-max)): 6 h
- Cmax ([3]; 100 mg, healthy subjects, 100 mg QD x 7 days, fasted, PK Day 1, mean ± SD): 86.9 ± 25.9 ng/mL
- Tmax ([3]; 100 mg, healthy subjects, 100 mg QD x 7 days, fasted, PK Day 1, median (min-max)): 4 h
- Cmax [3, 11]: 117 ± 39.4 ng/mL
- half-life [3, 11]: 21 ± 3.4 h
- AUC(0-inf) ([3]; 100 mg, healthy subjects, 100 mg QD x 7 days, fasted, PK Day 7, mean ± SD, read-out: AUC0-inf (cell marked with footnote 1)): 1480 ± 489 ng·h/mL
- Tmax ([3]; 100 mg, healthy subjects, 100 mg QD x 7 days, fasted, PK Day 7, median (min-max)): 3.5 h
- Cmax [3, 12]: 83.3 ± 49.1 ng/mL
- half-life [3, 12]: 23 ± 2.7 h
- AUC(0-inf) ([3]; 100 mg, healthy subjects, 100 mg single dose, fasted, PK Day 1, mean ± SD, read-out: AUC0-inf): 1290 ± 402 ng·h/mL
- Tmax ([3]; 100 mg, healthy subjects, 100 mg single dose, fasted, PK Day 1, median (min-max)): 4 h
- Maximum Viral Load Reduction after Single Dose (HCV Genotype 3 [4]; 25 mg single dose): 2.2 log10 IU/mL
- Maximum Viral Load Reduction after Single Dose (HCV Genotype 3 [4]; 50 mg single dose): 3.7 log10 IU/mL
- Maximum Viral Load Reduction after Single Dose (HCV Genotype 3 [4]; 100 mg single dose): 3.3 log10 IU/mL
